Source: PubChem BioAssay AID1626 (SRMLSC, 2009)

System: M. tuberculosis H37Rv growth inhibition
Assay: M. tuberculosis H37Rv growth inhibitors, H37Rv strain (AID 1626)
Conditions: for IC90: measured here: IC90 against H37Rv; for CC50: measured here: Vero cell cytotoxicity

SMILES	IC50 [µM]	IC90 [µM]	CC50 [µM]
O=C1/C(=C/c2ccccc2[N+](=O)[O-])COc2ccccc21	2.9	3.25	5.95
Cc1ccc(-n2c(C)nc3c(cnn3-c3ccc(C)c(C)c3)c2=O)cc1C	–	–	> 40
CC(=O)c1sc(NC(=O)c2cc(-c3ccccc3)nn2-c2ccccc2)nc1C	27.7	> 100	> 40
CCOc1ccc(N/C=C\C(=O)c2ccc3c(c2)OCO3)cc1	4.53	> 100	–
Cc1cc(NCCCn2ccnc2)n2nc(C)c(-c3ccc(Cl)cc3)c2n1	4.03	5.75	12.9
CCCCn1c(NC(=O)C2CCCCC2)nc2ccccc21	0.881	> 100	35
Cc1coc2c1C(=O)C(=O)c1c-2ccc2c(C)cccc12	0.336	0.366	27.8
c1ccc(-c2oc3ncnc(NCCCn4ccnc4)c3c2-c2ccccc2)cc1	7.29	16.4	23.6
Cc1ccc(OCc2nnc(SCc3cc(=O)[nH]c4ccccc34)n2-c2ccccc2)cc1	27.8	> 100	> 40
c1ccc(-c2nc(NCc3ccco3)c3ccccc3n2)nc1	1.92	3	9.33
COc1cc(CNCc2ccccn2)ccc1OCc1ccc(Cl)cc1Cl	6.04	9.96	> 40
O=C(NCCC1=CCCCC1)NC12CC3CC(CC(C3)C1)C2	< 0.195	67.6	–
c1ccc(CC2CCN(c3nc4ccccc4n4cnnc34)CC2)cc1	1.77	3.44	> 40
CCOC(=O)/C=C/C(=O)Nc1nccs1	–	> 100	–
S=c1[nH]cnc2sc(-c3ccccc3)cc12	8.3	> 100	–
O=C(Nc1nc(-c2ccccn2)cs1)C1CC1	3.96	> 100	> 40
O=C(/C=C/c1ccc(OCCCF)cc1)Nc1ccnc(-c2ccncc2)n1	84.1	> 100	> 40
Cc1ccc(Cn2c(NC(=O)c3ccco3)nc3ccccc32)cc1	4.08	> 100	> 40
Cc1cc(=O)oc2cc(OC(=O)c3ccco3)ccc12	61.6	> 100	–
Cc1sc2nc(CN(C(=O)NC3CCCCC3)C3CCCC3)[nH]c(=O)c2c1C	6.11	26.3	> 40
O=C(Nc1ccccc1OC(=O)c1ccc(Cl)cc1)c1ccc(Cl)cc1	12	18.6	–

SMILES	IC50 [µM]	IC90 [µM]	CC50 [µM]
CC(C)c1cc(NC(=O)CCl)on1	13.7	32.6	16.7
COc1ccc(-c2c(C#N)c(SCC(=O)c3cc4ccccc4oc3=O)nc(C)c2C(=O)Nc2ccccc2)cc1	12.2	14.2	3.41
CCCCOC(=O)Nc1ccc(C)c(Cl)c1	–	> 100	–
COCc1ccc(O)c2ncccc12	10.9	12	9.76
COC(=O)COc1ccc2c(=O)c(-c3ccccc3OC)coc2c1	3.01	5.62	–
CCCOC(=O)c1ccc(NC(=O)C2CCCO2)cc1 (stereo not drawn)	10.3	> 100	–
CC1CCN(C(=O)COC(=O)CCc2c[nH]c3ccccc23)CC1	0.34	> 100	–
Cc1cc(C)n(-c2nc(NC(C)C)nc(NC(C)C)n2)n1	0.961	3.94	> 40
Nc1ccc(Oc2ccc(Br)cc2)cc1	30.8	> 100	–
CC1C(c2ccccc2)N(C)C(c2ccccc2)CC1(O)c1ccccc1 (stereo not drawn)	5.85	6.61	> 40
c1ccc(-c2nc(N3CCOCC3)c3ccccc3n2)nc1	5.22	14.5	> 40
CCOC(=O)c1ccc(NC(=O)Oc2cc(C)c(Cl)cc2C(C)C)cc1	11.4	> 100	–
N#CC(c1ccc(Cl)cc1)c1ccc2c(C(F)(F)F)cc(C(F)(F)F)nc2n1 (stereo not drawn)	0.571	0.691	0.904
O=[N+]([O-])c1cc(/C=N/N/C(=N/c2ccccn2)c2ccccn2)ccc1O	17.9	> 100	26.8
O=C1CCCC(O)=C1C=Nc1ccc2c(c1)oc1ccccc12	< 0.195	> 100	–
c1cc2c(cc1C1CCCCC1)c1c3n2CCCNC3CCC1 (stereo not drawn)	6.06	6.63	6.99
Cc1cccc(NC(=O)c2nc[nH]c2C(=O)N[C@@H](CC(C)C)C(=O)OCc2ccccc2)c1	23	> 100	39.1
Cc1ccc(NC(=O)COC(=O)CC2CCCC2)cc1Cl	–	> 100	–
Cc1c(C(=O)Nc2nc3ccccc3[nH]2)oc2ccccc12	1.29	4.5	> 40
CC(=O)Nc1nc(NC(=O)/C=C/c2ccccc2)n(-c2ccccc2)n1	3.63	8.76	27.7
COc1ccc(N2CN=C3SCC(=O)N3C2)cc1	46.5	> 100	–

SMILES	IC50 [µM]	IC90 [µM]	CC50 [µM]
COc1ccccc1N1CCN(c2nc(C)nc3c2oc2ccccc23)CC1	1.74	3.89	5.01
NC1=NC[C@H](CC2CCCCC2)N1CCc1cc(C(F)(F)F)cc(C(F)(F)F)c1	8.62	11	27.4
CCCN(CCC)C(=O)c1cc([N+](=O)[O-])cc2c1-c1ccc([N+](=O)[O-])cc1C2=C(C#N)C#N	8	9.91	33.6
CCCCOC(=O)c1ccc(NC(=O)CSc2nnnn2C)cc1	19	> 100	–
N#C/C(=C/c1ccc(N2CCCCC2)o1)C(=O)NCCc1c[nH]c2ccccc12	41	> 100	> 40
Cc1ccccc1-n1ncc2c([N+](=O)[O-])cc([N+](=O)[O-])cc21	2.97	4.48	> 40
CCOC(=O)c1ccc(NC(=O)CCc2nc(-c3ccc(Cl)cc3)no2)cc1	0.898	18.4	–
CCn1c(COc2cccc3ccccc23)nnc1SCC(=O)OC1CCCCC1	4.04	14.1	–
CC(NC(=O)c1ccc([N+](=O)[O-])cc1[N+](=O)[O-])c1ccc(-c2ccccc2)cc1 (stereo not drawn)	2.51	> 100	> 40
COc1cccc2sc(N(CCCN(C)C)C(=O)C(c3ccccc3)c3ccccc3)nc12	13.5	18.4	21.8
COc1ccc(N=Cc2ccc[nH]2)cc1	–	> 100	–
Cc1ccc(Cn2ccc(=O)c(OCc3c(Cl)cccc3Cl)c2C)cc1	8.57	11.8	> 40
O=C(Nc1nnc(-c2ccccn2)o1)c1cccc(Cl)c1	5.25	> 100	> 40
Nc1nc(-c2cccc(Br)c2)cs1	23.8	> 100	–
CCOC(=O)C1=C(c2ccccc2)N=c2s/c(=C\c3ccc(O)cc3)c(=O)n2C1c1cccs1 (stereo not drawn)	8.75	> 100	> 40
Cc1nc(S/C(=C/c2ccc(-c3ccc(Cl)cc3)o2)C(=O)O)n[nH]1	10.6	> 100	> 40
Nc1nc2c(s1)COc1ccccc1-2	–	> 100	–
O=C(CCl)N(c1ccccc1)c1ccccc1	5.73	17.6	1.69
O=C(CSc1nnc(CNc2cccc(Cl)c2)o1)OC1CCCCC1	0.661	1.4	–
CCCCCCCn1c(=O)c(C(=O)Nc2cnccn2)c(O)c2ccccc21	< 0.195	< 0.195	2.37
COc1cccc(-c2nnc(SCC(=O)Nc3cc(C)on3)o2)c1	5.8	8.52	> 40

SMILES	IC50 [µM]	IC90 [µM]	CC50 [µM]
Cn1c(NC(=O)c2ccccc2NC(=O)C(C)(C)C)nc2ccccc21	–	–	> 40
CCCc1ccc(C2C3=C(CC(C)(C)CC3=O)NC3=C2C(=O)c2ccccc23)cc1 (stereo not drawn)	5.54	> 100	> 40
O=C(/C=C/c1cn(CC(O)CN2CCCCC2)c2ccccc12)c1ccccc1 (stereo not drawn)	2.94	3.34	29.5
CCCCc1nc2sc3c(SCCN(C)C)ncnc3c2c2c1CCC2	12.8	25.4	> 40
Cc1ccc(N2C(=O)C(F)(F)C2c2ccccc2)cc1 (stereo not drawn)	4.38	19.7	–
O=C(CN1CCC(C(=O)c2ccc3c(c2)OCCO3)CC1)NC1CCCC1	–	–	> 40
COC(=O)c1cc(/C=C/c2ccccc2)on1	1.33	> 100	–
CC(C)OC(=O)CSc1ncnc2c1cnn2-c1ccccc1	8.75	25.2	–
C=C1C(=O)O[C@@H]2C[C@@H](C)[C@@H]3C=CC(=O)[C@@]3(C)[C@@H](O)[C@H]12	3.84	6.64	1.84
CCOC(=O)CSc1ncnc2c1cnn2-c1ccccc1	1.37	14.6	–
Cc1ccc(C(O)(c2ccccc2)c2ccccc2C(C)N(C)C)c(C)c1 (stereo not drawn)	11.7	19.9	39
Cc1cc(NC(=O)CSc2nc(C(C)C)nc3sc4c(c23)CCCC4)no1	11.2	> 100	> 40
N#Cc1ccc(C(=O)Nc2nnc(-c3ccco3)o2)cc1	7.95	> 100	> 40
O=Cc1ccc(-c2ccc(Cl)cc2Cl)[nH]1	8.46	> 100	–
O=C(/C=C/c1ccnc2ccccc12)c1cccs1	17.6	24.6	> 40
Cc1ccccc1NC(=O)c1ccc(OCC(=O)Nc2ccccc2F)cc1	76	> 100	–
CCOc1ccc(N=Cc2c(O)n(C(C)(C)C)c(=O)[nH]c2=O)cc1	< 0.195	> 100	–
O=C(COc1ccc(Cl)cc1)Nc1ccc(Cc2ccncc2)cc1	5.95	12.4	–
CC(=O)CC1(OC(C)=O)C(=O)N(C)c2ccccc21 (stereo not drawn)	5.34	5.89	24.3
COC(=O)/C(=C1/Oc2cc(C)oc(=O)c2S1)C(F)(F)F	0.698	23.8	6.33
